Here are results for 98 compounds from ChEMBL document CHEMBL3507680, “University of Dundee, Gates Library screen for HepG2 cell viability”.

The structures appear in SMILES notation.

The series is described as follows: Human HepG2 cell viability assay in 384 well format. It is filed as toxicity, cell-based. Also on record: dose 125 nL, time 70.5 hour; concentration not given beside the values. The settings on record: HepG2 cells, read-out: Inhibition.
Take `Cc1c(NC(=O)c2noc3c2CCCC3)cnn1C`: the cytotoxicity at 70.5 h amounted to 16.1%.
Then `c1ccc(C2(CNCc3cnc(N4CCOCC4)nc3)CC2)cc1`, with -8.71%.
As for `CCOC(=O)N1C[C@H]2CC[C@@H]1CN(Cc1ccccc1)C2`, the figure is -6.47%; as for `COc1ccc(C2(c3nc(-c4cccnc4)no3)CCOCC2)cc1`, 34.4%.
Then `CC(C)N(Cc1ccc(C#N)cc1)C(=O)Nc1ccccn1`, with -7.3%.
With `O=C(O)c1cc2c(nc1-c1ccncc1)CCN(C1CCOC1)CC2` (stereo not drawn), the cytotoxicity at 70.5 h was -4.07%.
As for `Cc1cc(C)n(CC2CCCN2C(=O)c2cccc(C#N)c2)n1` (stereo not drawn), the figure is -2.63%.
As for `CC(C)n1ccnc1CN1CCOC(CC2CCCCC2)C1` (stereo not drawn), the figure is 5.36%; as for `CCNC(=O)Cc1n[nH]c(-c2cncc(Br)c2)n1`, 32%; as for `Cc1nc(NCCC23CCCN2CCC3)cc(C2CCNCC2)n1`, -7.1%.
As for `COc1ccc(C2CCCCCN2Cc2nnc(C)o2)cc1` (stereo not drawn), the figure is -3.01%; as for `Cc1ncc(CNC2CC(=O)N(CCc3cccc(Cl)c3)C2)n1C` (stereo not drawn), -9.98%.
On to `c1cnc(N2CCC3(COCCN(CC4CC4)C3)C2)nc1` (stereo not drawn), for which the cytotoxicity at 70.5 h is -21.1%.
Then `Cc1cc(CNc2ccnn2CC(C)C)ccc1-n1cncn1`, with 7.96%; and `O=C(CC1CCCO1)NCCc1ccc(Br)cc1F` (stereo not drawn), with -5.5%.
Regarding `Cn1ncc2c(N3CC(N4CCCCC4)C3)nc(-c3ccncc3)nc21`, the cytotoxicity at 70.5 h is -12.9%.
Then `O=C(c1ccsc1)N1CCc2c(CN3CCCC3)n[nH]c2C1`, with 0.233%; and `Cc1cc2ccccc2n1CC(=O)N[C@@H](C)C(=O)O`, with -19.5%.
As for `CCC(O)CN1CCN(C(=O)CCSC)CC1` (stereo not drawn), the figure is 0.756%.
Regarding `COc1ccc(CN2CCC3(CC2)CCN(CCN(C)C)C3=O)cc1`, the cytotoxicity at 70.5 h was -18%.
As for `COCCNC(=O)c1cc(S(=O)(=O)N2CCCCC2)cs1`, the figure is -13.8%; as for `O=C(CC1CC1)NC1CCc2c(ccc(=O)n2CC2CC2)C1` (stereo not drawn), 0.842%; as for `O=C(CCn1ccnc1)N1C[C@@H](O)[C@H](Oc2cccc(F)c2)C1`, 0.895%.
As for `CC(c1ccc(Cl)cc1)N1CCN(CCS(N)(=O)=O)CC1` (stereo not drawn), the figure is -0.779%; as for `CCN(CCn1cccn1)Cc1nc(-c2ccc(C)o2)oc1C`, 13%; as for `OC1CCN(c2ccnc3c(F)cc(Br)cc23)CC1`, 16.9%.
As for `CCS(=O)(=O)Nc1cnn(Cc2cccc(Cl)c2)c1`, the cytotoxicity at 70.5 h was -10.7%.
As for `CCN(Cc1nc2c(cnn2C)c(=O)[nH]1)Cc1ccccc1C`, the figure is 1.06%; as for `CN(CC(=O)N1CCOCC(CO)C1)Cc1ccccn1` (stereo not drawn), -12.5%; as for `CCCc1noc(CCC(=O)N2CCCC2c2cccc(OC)c2)n1` (stereo not drawn), -8.65%.
In the case of `Cn1cc(CN2CC[C@@H]3[C@@H]2CCN3C(=O)c2cccc(F)c2)cn1`, the cytotoxicity at 70.5 h was -14.7%.
On to `O=c1[nH]c2ccccc2cc1CNCCCN1CCOCC1`, for which the cytotoxicity at 70.5 h is -1.38%.
Then `Cc1ccc(S(=O)(=O)NCc2[nH]ncc2Br)cc1C`, with -8.92%.
Then `Cc1c(C(=O)NCc2ccnc(OCC(F)(F)F)c2)cnn1C`, with -4.98%; and `O=C(O)c1ccc(S(=O)(=O)Nc2cccc(CC(F)(F)F)c2)c(F)c1`, with -7.64%; and `COc1ccc(CN2CCOC[C@H]2c2nc(-c3ccncc3)c[nH]2)cc1`, with -1.1%.
In the case of `Cc1nc(CN2CC[C@H](OCC3CC3)[C@@H]2Cc2cccnc2)cs1`, the cytotoxicity at 70.5 h is -1.82%.
As for `CCc1nnc2n1CCN(C(=O)c1cn(-c3ccccc3)nn1)C2`, the figure is 3.13%.
As for `Cc1nc(CN2C[C@@H]3CN(C(=O)c4ccncc4)C[C@@H]3C2)cs1`, the cytotoxicity at 70.5 h was -9.65%.
Then `CC(=O)Nc1cccc(C(=O)N2CCc3c(nc(N(C)C)[nH]c3=O)C2)c1`, with 16.1%; and `CCS(=O)(=O)N1CC[C@H]2O[C@H](c3nnc(C)o3)CC[C@H]21`, with -13.4%.
Take `Cc1noc(C)c1CCCNC(=O)Nc1cccc([S+](C)[O-])c1` (stereo not drawn): the cytotoxicity at 70.5 h is -3.63%.
As to `O=C(Cc1ccccc1)N1CCC2(CC1)CN(c1ncccn1)CCO2`, the cytotoxicity at 70.5 h was -9.68%.
On to `Cc1n[nH]c(C2CN(C(=O)CCCn3cccn3)CCO2)n1` (stereo not drawn), for which the cytotoxicity at 70.5 h is -2.71%.
As for `CCN1CCC2(CC1)CC(NCc1cccc(C)n1)c1ccccc1O2` (stereo not drawn), the figure is -16.9%; as for `COc1ccc(C(C)NC(=O)Nc2nnc(C)s2)cc1OC` (stereo not drawn), 2.44%; as for `Cc1ccc(NC(=O)C2CSCN2C(=O)c2cnccn2)c(C)c1` (stereo not drawn), -5.93%.
Then `Cc1cnn(CC2CCCCN2C(=O)c2ccc3c(c2)nnn3C)c1` (stereo not drawn), with -1.73%.
As for `Cn1cnnc1C1CCN(C(=O)c2cc(-c3ccccc3)on2)CC1`, the figure is 25.4%; as for `O=C(C[C@H]1[C@H]2CN(C(=O)Cc3ccccn3)C[C@@H]12)Nc1cccnc1`, -1.03%; as for `CC(C)(C)NC(=O)c1cnc(C(C)(C)C)s1`, 3.79%.
On to `Cc1ccc2nc(C(=O)N3C[C@@H](C(=O)O)[C@H](c4ccccc4)C3)cn2c1`, for which the cytotoxicity at 70.5 h was -8.12%.
As for `CC(C)n1cc(S(=O)(=O)N2CCSCC2)cn1`, the cytotoxicity at 70.5 h was -4.27%.
As for `CCCc1nccn1-c1ccncc1`, the figure is -5.45%; as for `CC(C)c1ccc(OCCC(=O)N2CCCN(C(N)=O)CC2)cc1`, -1.87%.
For the compound `O=C1OC2(CCNCC2)CN1CC(=O)N1CCCC1c1nccs1` (stereo not drawn), the cytotoxicity at 70.5 h was -7.02%.
Then `CCCc1n[nH]c(C2CN(C(=O)c3ccc4c(c3)COC4)CCO2)n1` (stereo not drawn), with -4.22%.
As to `CN1CCc2[nH]nc(C(=O)N3CCC4(CN(C)C(=O)O4)C3)c2C1` (stereo not drawn), the cytotoxicity at 70.5 h is -6.62%.
Then `COc1ccc(CN2CCc3ncnc(C4CCOC4)c3CC2)cc1` (stereo not drawn), with 13.2%; and `COC(=O)c1oc(CNC(C)(C)c2ccc3c(c2)OCCO3)cc1C`, with 20.9%.
With `Cc1ccc(C)c(OC2CCN(C(=O)CNc3ccccc3Cl)CC2)c1`, the cytotoxicity at 70.5 h was determined as 24.6%.
As for `CC(C)=CCN1CCc2onc(-c3ccc(F)c(F)c3)c2C1`, the cytotoxicity at 70.5 h is -11.7%.
As for `Cn1ccnc1CN1CCC2(CC(=O)N(c3ccc4c(c3)OCO4)C2)C1` (stereo not drawn), the figure is -17.1%.
Then `COc1ccc2[nH]cc(C3CCN(CCC(N)=O)CC3)c2c1`, with -11.2%.
Turning to `COc1cccc(N2CCN(Cc3ccc(NC(C)=O)cc3)CC2=O)c1`, the cytotoxicity at 70.5 h amounted to 9.59%.
Regarding `c1cc(CN2CCN3C[C@H](Oc4cncnc4)C[C@H]3C2)ccn1`, the cytotoxicity at 70.5 h was -5.1%.
For the compound `COc1ccc(C2CCCN2C(=O)NCCn2ccnc2)cc1OC` (stereo not drawn), the cytotoxicity at 70.5 h is 0.318%.
Then `Cc1nc(CN2CCC(c3ccnn3CCO)CC2)oc1C`, with 1.65%; and `O=C(CCc1cc2n(n1)CCCNC2)N1CCC(N2CCOC2=O)CC1`, with -3.48%.
Take `CC(C)NC(=O)[C@H]1C[C@@H]2[C@@H](C1)OCCN2Cc1cccnc1`: the cytotoxicity at 70.5 h was -2.77%.
`c1cc(-c2cnccn2)cc(-c2ccn(CCN3CCCCC3)n2)c1`: the cytotoxicity at 70.5 h is -7.67%.
For `CN(Cc1ccccc1)C(=O)CCS(=O)(=O)c1ccc2c(c1)OCCO2`, the cytotoxicity at 70.5 h is -62.4%.
As for `Cc1cnc(N2CCC3(CC2)CN(c2ccsc2)C(=O)CO3)nc1`, the cytotoxicity at 70.5 h was -5%.
Regarding `CN(CCCc1cc(-c2ccc(F)cc2)n(C)n1)CC(=O)NC(N)=O`, the cytotoxicity at 70.5 h was -8.03%.
Then `Cc1ccc(-c2cc(C(=O)NCC3CCOC3)n[nH]2)s1` (stereo not drawn), with 20.2%.
As for `CC(C)Sc1ncccc1C(=O)NCc1ccoc1`, the cytotoxicity at 70.5 h was -9.56%.
For the compound `Cc1ccccc1CNC(=O)N1C[C@H]2C[C@H](C(=O)N3CCCC3)[C@@H](C1)O2`, the cytotoxicity at 70.5 h is -3.56%.
As for `O=C1NCCCC12CCN(Cc1ccc(SC3CCCCC3)o1)C2` (stereo not drawn), the cytotoxicity at 70.5 h stood at 5.14%.
As for `CCOCC1CN(c2ncc(F)cn2)Cc2cn(CC)nc21` (stereo not drawn), the figure is -11.1%; as for `CCCc1nnc(SCC(=O)Nc2cc(C(C)(C)C)nn2C)[nH]1`, -13.2%; as for `Cc1nnc(C(NS(=O)(=O)c2cc(C#N)ccc2C)C(C)C)[nH]1` (stereo not drawn), -5.93%.
Then `COc1ccc(NC(=O)N2CCN(c3ncccn3)CC2)cn1`, with -5.14%.
Then `Cc1ccc(C)c2c(C)c(C(=O)NCC[S+](C)[O-])[nH]c12` (stereo not drawn), with -4.15%.
Take `Cc1ccc(CN2CCN(Cc3nccn3C)[C@H]3CS(=O)(=O)C[C@H]32)o1`: the cytotoxicity at 70.5 h was -6.86%.
As for `CS(=O)(=O)NC1CCCN(C(=O)Nc2ccccc2Cn2cccn2)C1` (stereo not drawn), the figure is 14.4%.
As for `Cc1ccc(S(=O)(=O)Nc2ccc(C)c(C(=O)O)c2)s1`, the figure is -0.348%.
Regarding `COc1ccc(NC(C)=O)c(N2CCN(C(C)=O)CC2)n1`, the cytotoxicity at 70.5 h was -0.156%.
With `COCCCn1ccc(NS(=O)(=O)c2cc(F)c(C)cc2F)n1`, the cytotoxicity at 70.5 h is -12.2%.
Then `CCN(CCc1nc2cc(C)ccc2[nH]1)C(=O)[C@@H](N)Cc1c[nH]cn1`, with -11.4%; and `CC1CCN(C(=O)c2cnc(CC3CCCN(C)C3)cn2)CC1` (stereo not drawn), with -9.3%.
As for `Cc1cc(NCc2cn(C)nc2-c2cccnc2)n(C)n1`, the figure is -2.96%.
With `CN1CCN(S(C)(=O)=O)c2ccc(F)cc21`, the cytotoxicity at 70.5 h is -11.1%.
As for `O=C(NCc1cc2ccccc2s1)c1cc(CN2CCCC(O)C2)on1` (stereo not drawn), the figure is -3.19%.
Then `Cn1nnc2c1CCN(C(C(=O)N1CCCCC1)c1ccccc1)C2` (stereo not drawn), with -7.33%; and `c1cc(C2CCN(c3cncnc3)CC2)ccn1`, with 1.76%.
As for `Cc1ccc(N2CCCC(N3CCC(N(C)C)CC3)C2=O)cc1` (stereo not drawn), the figure is 13.2%; as for `Cc1cc(CN2CC[C@H]3[C@H]2CCN3C)oc1C`, -5.26%.
With `COCCS(=O)(=O)NC(C)c1cccc(-n2cccn2)c1` (stereo not drawn), the cytotoxicity at 70.5 h was 0.445%.
